Read-outs that look alike come from different tables or passages of the source.
Experiments:
[1] = cited from earlier work
[2] = tested on: hiHeps; experiment: Measurements of hepatic clearance in hiHeps suspension
Experimental: Briefly, a 1×10^6 cells/ml cell suspension and 2× drug solutions were prepared in incubation medium (William's E medium, 10 mM HEPES [pH 7.4], and 1% GlutaMAX). Reactions were started by adding 500 μl of drug solutions to 500 ul of hiHeps, giving a final substrate concentration of between 1 and 2 μM.
These concentrations were selected to be below the Km for most substrates but to still have sufficient analytical sensitivity. Reactions were performed in an orbital shaker in an incubator at 37° C. Then, 80 μl aliquots were removed at 0, 15, 30, 60, 90, 120, 180 and 240 minutes, and samples were quenched in 240 μl of methanol containing an isotope-labeled reference and frozen at −80° C. The substrates were quantified using the validated traditional LC-MS/MS methods described above. Assays were performed in triplicate.
The slope (−k) of the linear regression from the log [substrate] versus time plot was determined. […] No correction factor was made for any differential in vitro and in vivo binding, and the distribution of the drug between the plasma and blood was assumed to be unity.

[3] = tested on: CYP1A2
Experimental: (§1) Vehicle-treated groups were used to determine the basal activity. To measure the induced activity of PHHs, PHHs were cultured and induced under sandwich methods.

[4] = tested on: hiHeps
[5] = tested on: HepG2 cells; type: cell-based; conditions: human
Experimental: For the toxicity assay, hiHeps, HepG2 cells and PHHs were cultured in 96-well or 384-well plates. Compounds with 7-8 concentration dilutions were prepared in DMEM with 3% FBS to test HepG2 cells or in HCM to test PHHs and hiHeps. The final DMSO concentration under all conditions was consistent. The detailed information of the tested compounds is listed in Table 7 ((Seglen, et. Al., Methods in Cell Biology 13, 29-83 (1976)), Zhong et. Al., Clin Chim Acta. 412, 1905-1911 (2011))).
Compounds were tested in bipartite in a dilution series by half-log concentration increments. […] After 1-4 hour chromogenic reaction in the incubator, the absorbance at 450 nm was read using a SpectraMax i3× (Molecular Devices). Image data were analyzed online using the Columbus Image Data Storage and Analysis System (PerkinElmer) with the following steps: (1) identification and counting of nuclei; (2) identification and counting of live cells labeled by CellTrace™ Calcein Red-Orange AM; and (3) identification and counting of live cells labeled by MitoTracker™ Deep Red FM. […] The cellular viability of each parameter was expressed as the live cell ratio and normalized to the negative control. The TC50 values of these four parameters were calculated separately, and the minimum TC50 value was used as the final TC50.

[6] = tested on: HBV; experiment: HBV infection of hiHeps, response to anti-HBV compounds; type: cell-based
[7] = Toxicity assay in hiHeps (TC50); type: cell-based, human; conditions: human, hiHeps, 24 hours; values rounded for ease of use
Experimental: (§2) For the toxicity assay, hiHeps, HepG2 cells and PHHs were cultured in 96-well or 384-well plates. Compounds with 7-8 concentration dilutions were prepared in DMEM with 3% FBS to test HepG2 cells or in HCM to test PHHs and hiHeps. The final DMSO concentration under all conditions was consistent.
(§3) Compounds were tested in bipartite in a dilution series by half-log concentration increments. After the cells were treated with compounds for 24 hours, the supernatant was discarded and modified WEM (William's E medium supplemented with 2% B27 and 1% GlutaMAX) containing fluorescent probes was added to cells. […] After incubation for 30 minutes, the supernatant was discarded and cells were washed twice. Images were acquired using the Operetta High-Content Imaging System (PerkinElmer) with a 10× objective. […] After 1-4 hour chromogenic reaction in the incubator, the absorbance at 450 nm was read using a SpectraMax i3× (Molecular Devices). Image data were analyzed online using the Columbus Image Data Storage and Analysis System (PerkinElmer) with the following steps: (1) identification and counting of nuclei; (2) identification and counting of live cells labeled by CellTrace™ Calcein Red-Orange AM; and (3) identification and counting of live cells labeled by MitoTracker™ Deep Red FM. The viability of each parameter transformed from image data and the CCK-8 assay data were entered into Excel. The cellular viability of each parameter was expressed as the live cell ratio and normalized to the negative control. The TC50 values of these four parameters were calculated separately, and the minimum TC50 value was used as the final TC50.

[8] = tested on: hiHeps; experiment: Toxicity assay in hiHeps (TC50); type: cell-based, human
Experimental: as §2, §3

[9] = tested on: CYP2B6
Experimental: as §1

[10] = hiHeps suspension, substrate 1 μM, parent disappearance
[11] = scaled from hiHeps CLint, well stirred model, human

## Cc1ncc2n1-c1ccc(Cl)cc1C(c1ccccc1F)=NC2 [Midazolam]
[1]; observed in vivo, previous reports
  Observed CLh in vivo: 5.3
[2]; human, pH 7.4
  In vitro Clint hiHeps by: 2.8 μL/min/10^6
  Scaled in vivo CLh by hiHeps: 5.3 ml/mim/kg

## Cc1c(OCC(F)(F)F)ccnc1C[S+]([O-])c1nc2ccccc2[nH]1 (centres unmarked) [lansoprazole]
[3]
  induced activity of CYP1A2: could be induced

## CC(C)C(=O)Nc1ccc([N+](=O)[O-])c(C(F)(F)F)c1 [flutamide]
[4]
  toxicity after induction with rifampin: increased after induction with rifampin
[5]
  cell viability: 100%

## interferon-alpha
[6]; HBV-infected hiHeps, 1000 U/mL after infection
  effect on all major HBV markers: inhibitory effect
[6]; hiHeps, 1000 U/mL
  IFN-stimulated genes expression: upregulation

## CCOc1ccc(NC(C)=O)cc1 [Phenacetin]
[2]; [10]
  In vitro Clint hiHeps by: 18.3 μL/min/10^6
[2]; [11]
  Scaled in vivo CLh by hiHeps: 14.1 ml/mim/kg

## O=c1cc(-c2ccccc2)oc2ccc3ccccc3c12 [β-naphthoflavone]
[3]
  induced activity of CYP1A2: could be induced

## O=C(O)Cc1ccccc1Nc1c(Cl)cccc1Cl [Diclofenac]
[1]; in vivo
  Observed CLh in vivo: 7.6
[2]; [10]
  In vitro Clint hiHeps by: 4.5 μL/min/10^6
[2]; [11]
  Scaled in vivo CLh by hiHeps: 7.4 ml/mim/kg

## C=CCN1CC[C@]23c4c5ccc(O)c4O[C@H]2C(=O)CC[C@@]3(O)[C@H]1C5 [Naloxone]
[2]; [10]
  In vitro Clint hiHeps by: 14.2 μL/min/10^6
[2]; [11]
  Scaled in vivo CLh by hiHeps: 13 ml/mim/kg

## CO[C@H]1/C=C/O[C@@]2(C)Oc3c(C)c(O)c4c(O)c(c(/C=N/N5CCN(C)CC5)c(O)c4c3C2=O)NC(=O)/C(C)=C\C=C\[C@H](C)[C@H](O)[C@@H](C)[C@@H](O)[C@@H](C)[C@H](OC(C)=O)[C@@H]1C [rifampin]
[7]
  CC50 at 24 h: 100 µM

## CN(C)CCCN1c2ccccc2Sc2ccc(Cl)cc21 [chlorpromazine]
[7]
  CC50 at 24 h: ~25 µM

## CC(=O)N1CCN(c2ccc(OCC3COC(Cn4ccnc4)(c4ccc(Cl)cc4Cl)O3)cc2)CC1 (centres unmarked) [ketoconazole]
[4]
  rescue from rifampin-increased toxicity of AFB1 and flutamide: rescued

## C=C1[C@H](CO)[C@@H](O)C[C@@H]1n1cnc2c(=O)[nH]c(N)nc21 [entecavir]
[6]; HBV-infected hiHeps, LAM 1 μM, ETV 0.5 μM, especially during prolonged treatment
  inhibition of HBV-DNA: greatly inhibited

## aflatoxin B1
[4]
  toxicity after induction with rifampin: increased after induction with rifampin

## Cc1c(C)c2c(c(C)c1O)CCC(C)(COc1ccc(CC3SC(=O)NC3=O)cc1)O2 (centres unmarked) [troglitazone]
[8]
  chronic toxicity (cell death): caused extensive cell death

## CCC1(c2ccccc2)C(=O)NC(=O)NC1=O [Phenobarbital]
[9]
  induced activity of CYP2B6: could be induced

From patent US20220127580A1, “COMPOSITIONS AND METHODS FOR REPROGRAMING NON-HEPATOCYTE CELLS INTO HEPATOCYTE CELLS” (priority 2019, published 2022)
